# Reference: patent publication US20240228542A1, “LYTIC DOMAIN FUSION CONSTRUCTS, CHECKPOINT INHIBITORS, AND METHODS OF MAKING AND USING SAME” (A28 Therapeutics Inc., priority 2020, published 2024)
# pIC50: −log10 of the molar value. “And” between values parts separate entries of the source, which are not always exact repeats. Equal values may be shown once. “Also recorded” adds a separate entry of the source. Read-outs that look alike come from different tables or passages of the source.
# Assays:
# MCF-7 cells = experiment: Time course of cytotoxicity in MCF-7 cells (MTT); type: cell-based, human; details: for incubation time to maximal efficacy: MCF-7 cells
# Text: (§1) Membranes of non-cancerous cell lines are neutral and are resistant to cytolytic peptides, in contrast to cancer cell lines, which have a high phosphatidic acid content in their outer membrane.
# (§2) The melanoma cell line studied was MDA-MB-435S (estrogen receptor alpha negative), breast cancer cell lines MCF-7 and T47D (estrogen receptor alpha positive), ovarian cancer cell lines (OVCAR-3 and SKOV-3), prostate cancer (LNCaP), the non-malignant breast epithelial cell line MCF-10A and the mouse fibroblast cell line NIH:3T3.
# (§3) Cells were seeded into 96 well plates at a density of 10,000 cells/well. […] Controls contained USP saline or 0.1% TritonX-100™ as reference for 0 and 100% cell death, respectively. Incubations were terminated by removing the culture media after 2 minutes, 5 minutes, 15 minutes, 30 minutes, 1 hour, 2 hours, 6 hours, 24 and 48 hours. Cell viability was assessed through formazan conversion assay (MTT assay, (CellTiter 96 Aqueous One, Promega # G3582). Formazan conversion was determined using a BioRad Benchmark Plus microplate spectrophotometer dual wavelengths at 490/630 nm at room temperature).
# (§4) Data were calculated as fraction of absorption in TritonX-100™ containing wells representing 100% cell death versus 0% cell death in saline containing wells. Cytotoxicity was determined as ICso using GraphPad Prism version 5.01 for Windows, GraphPad Software, San Diego California USA according to the program for sigmoidal dose response with variable slope using constraint values of 0 and 100%. 4 wells of each individual set of two 96 well plates were compared and analyzed. Statistical analysis for significance was determined by a two-tailed Student's T-test.
# OVCAR-3 cells = type: cell-based, human; details: for incubation time to maximal efficacy: OVCAR-3 cells
# Text: as §1, §2, §3, §4
# MDA-MB-435S xenograft = experiment: MDA-MB-435S xenograft, minimal effective dose, once weekly; type: in vivo, Nu/Nu mice
# Procedure: To determine the minimal effective dose necessary to reduce MDA-MB-435S xenograft weights in a single dose regimen, Nu/Nu female mice, outbred strain, age 5 weeks (Charles River), were injected (s.c.) into the interscapular region with a MDA-MB-435S (passage #249)/Matrigel suspension (2.4×10^6 cells/mouse) [Leuschner 2006].
# Each group consisted of 16 mice, which were injected once a week for 3 weeks. A group of 16 mice was sacrificed at the time of treatment start to serve as baseline. Saline injections served as control groups. During the entire study tumor volumes were recorded twice weekly.
# Treatment started on day 16 after tumor cell injection when the tumors were established and continued on days 23 and 30. All remaining mice were necropsied 37 days after tumor cell injection.
# Treatment response was determined by tumor weights and tumor weight change at necropsy compared to saline controls and untargeted CLIP71 treatment. Primary tumors were collected, weighed and prepared for histological evaluation in formalin fixation with 10% PBS buffered formalin. Statistical evaluation of data sets were conducted in GraphPad Prizm 4 and significance calculated by Wilcoxon signed-rank test.
# OVCAR-3 xenograft = experiment: OVCAR-3 ovarian cancer xenograft; type: in vivo, Nu/Nu mice; details: for tumor volume: CLIP71 2 mg/kg, cisplatinum 10 mg/kg
# Procedure: In brief, Nu/Nu female mice, inbred strain, age 5 weeks (Harlan-Sprague Dawley) were injected subcutaneously with a NIH:OVCAR-3 cells/Matrigel suspension (4.6×10^6 cells/mouse). Treatment was started on day 33 after tumor cell injection when the tumors were established and continued on days 41 and 47. The doses for the 3 weekly injections were 0.02, 0.2 and 2 mg/kg body weight, given as a single bolus intravenous injection via lateral tail vein administered once a week for three weeks on days 33, 41 and 47. Necropsies were conducted on day 52. Data are presented as mean […]SEM. Arrows show dosing.
# A group of 9 tumor bearing mice was sacrificed on day 33 and served as baseline group. All mice were necropsied 51-52 days after tumor cell injection. Tumor volumes and bodyweights were recorded twice weekly during the study, as well as overall veterinarian examination of mice was conducted.
# Primary tumors, liver, kidney, pancreas, heart, lung, and spleen were collected, fixed in formalin and prepared for histological evaluation. Tumor weights were measured at necropsy, part of the tumors were frozen at −80° C. for LH/CG and LHRH receptor assay determination.
# As a biomarker for drug activity, CA 125 was determined in serum, collected from each individual mouse at necropsy using a Enzyme Linked Immunoassay for quantitative determination of ovarian cancer antigen CA125 (Assay kit Genway, Biotech, Inc. San Diego, CA, Catalog #40-052-115009, #BC-1013 according to the manufacturer).
# LHRH receptor levels were assessed from formalin fixed tumors. Quantitative immunoperoxidase image analysis was conducted with the Ventana Image Analysis System (VIAS) adjunctive computer assisted image analysis system functionally connected to an interactive microscope (Axio Imager). The quantitative analysis was conducted with the program for quantification of Her2/neu receptor that included morphometric and colorimetric analysis. Receptor status results were reported as percentage of cells showing positive staining of the LHRH receptors under the following criteria: 0 non-immunoreactive, 1+: 1-25% positive, 2+: 26-50% positive, 3+: 51-75% positive cells.
# SKOV-3 cells = experiment: Time course of cytotoxicity in SKOV-3 cells (MTT); type: cell-based, human
# Text: as §1, §2, §3, §4
# MDA-MB-435S cells = experiment: Time course of cytotoxicity in MDA-MB-435S cells (MTT); type: cell-based, human; details: for pIC50: MDA-MB 435S; for incubation time to maximal efficacy: MDA-MB-435S cells
# Text: as §1, §2, §3, §4
# [1] = MDA-MB-435S.luc, 1 × 3 wk, 22 d, minimal effective dose study
sequence,measurement,setting,value
"KFAKFAKKFAKFAKKFAK [Phor18, reference compound]",incubation time to maximal efficacy,MCF-7 cells,24 h
same,incubation time to maximal efficacy,OVCAR-3 cells,24 h
same,tumor volumes and tumor weights,MDA-MB-435S xenograft; CLIP71 plus LHRH 0.2/0.122 mg/kg,did not decrease tumor weights
same,tumor weights,OVCAR-3 xenograft; OVCAR-3 xenograft at necropsy,not effective in reducing tumor weights
same,tumor volume,OVCAR-3 xenograft; OVCAR-3 xenograft,tumor growth was observed; also recorded: no reduction in tumor volume
same,pIC50,"SKOV-3 cells; SKOV-3 (SKOV-3 and HEK 1A), 24 hours, read-out: IC50",4.93
same,pIC50,"SKOV-3 cells; SKOV-3 (p40), listed as CLIP71, read-out: IC50 with increasing incubation time",4.07 and 4.02 and 4.28 and 4.30
same,pIC50,MDA-MB-435S cells; 24 hours,4.26
same,pIC50,MDA-MB-435S cells; 48 hours,5.52
same,incubation time to maximal efficacy,MDA-MB-435S cells,24 h
KFAKFAKKFAKFAKKFAKQHWSYGLRPG [Phor18-LHRH],pIC50,"MCF-7 cells; MCF-7 (p152), read-out: IC50 with increasing incubation time",5.47 to 5.74
same,incubation time to maximal efficacy,MCF-7 cells,1 h and 0.5 to 1 h
same,pIC50,"OVCAR-3 cells; OVCAR-3 (p47), read-out: IC50 with increasing incubation time",6.30
same,incubation time to maximal efficacy,OVCAR-3 cells,1 h and 0.5 to 1 h
same,Median Tumor Weight vs Baseline p < 0.05 (lowest dose),MDA-MB-435S xenograft; [1],2 µg/kg
same,Median Tumor Weight vs Saline P < 0.05 (lowest dose),MDA-MB-435S xenograft; [1],0.2 µg/kg
same,Remarks / histology of tumors,"MDA-MB-435S xenograft; Phor18-LHRH at doses as low as 0.0002 mg/kg, CLIP71/LHRH 0.2/0.122 mg/kg",significant necrosis
same,lowest concentration with tumor volume reduction compared to baseline,"OVCAR-3 xenograft; 42 days after tumor cell injection, p<0.001",0.2 mg/kg bodyweight
same,Median Tumor Weight vs Baseline p < 0.05 (doses),"OVCAR-3 xenograft; OVCAR-3, 1 × 3 wk, 20 d",200 µg/kg
same,Remarks / histology of treated tumors,OVCAR-3 xenograft; OVCAR-3 xenograft,significant necrosis
same,tumor volume,OVCAR-3 xenograft; OVCAR-3 xenograft,Tumor volumes decreased
same,CA125 secretion (serum),OVCAR-3 xenograft; greatest at 0.2 and 2 mg/kg (p<0.0002 vs saline),reduced
same,reduction of LHRH receptor levels,"OVCAR-3 xenograft; treated tumors, immunoperoxidase image analysis",1-2 score points
same,incubation time to maximal efficacy,SKOV-3 cells; SKOV-3 cells,24 h
same,pIC50,MDA-MB-435S cells; 0.5 hour,5.92
same,pIC50,MDA-MB-435S cells; 1 hour,6.22
same,incubation time to maximal efficacy,MDA-MB-435S cells,1 h and 0.5 to 1 h
